Test results as given in patent publication US10517965B2, “Bioorthogonal turn-on probes” (The General Hospital Corporation, priority 2013, dated 2019).

Key:
[1] = Fluorogenic characterization of HELIOS probes on reaction with TCOc; assay type: physicochemical; details: for peak turn-on ratio upon reaction with TCOc: PBS; for Fluorescence Enhancement: fluorogenic turn-on ratio of the Me-tetrazines upon reaction with TCOc
Method: As described above, the fluorescence purity of all HELIOS compounds was verified by LCMS prior to quantitative activation experiments, for which a fresh aliquot of the fluorophore collected from the analytical HPLC elution was used. Exceptionally pure material is required to obtain the peak measured turn-on ratios, as the presence of trace bright contaminants limits the maximum observable ratio.
(§1) Stock solutions of the freshly-purified tetrazine dyes were prepared in MeCN and stored in the dark at 4° C. during experiments. For fluorescence measurements, the probes diluted into 2 mL or 3 mL of phosphate buffered saline (PBS), pH 7.4 (Corning, cellgro) in a standard 10 mm quartz cuvette. Working at peak excitation and emission wavelengths for each probe, data were collected as a continuous time series to enable accurate measurement of the baseline intensity values and optimize signal to noise. Fluorescence experiments were conducted at a range of dye concentrations spanning 100 nM-750 nM, with 500 nM being a typical working concentration. The time to peak turn on ratio (but not the final magnitude) is a function of the added TCOc (see Example 25) concentration; for the time courses presented herein, 10 μM TCOc was used. Measurements of solvent and pre-activation emission intensity for baseline values were collected serially over at least 30 seconds, prior to addition of TCOc to initiate the fluorogenic reaction. After addition of TCOc (typically a 20-fold excess, as above), the fluorescence emission intensity was monitored until a plateau was reached. Activation ratios were calculated from the peak emission intensity of the dihydropyridazine product and the corresponding baseline intensity over background. Data were normalized to set the initial background fluorescence of the HELIOS probe to one unit over background, as plotted in FIG. 9 in the main text.

[2] = Quantum yield determination, quinine sulfate reference; assay type: physicochemical; details: dihydropyridazine product after complete reaction with TCOc in PBS pH 7.4; quinine sulfate standard (Φ = 0.546)
Description: Quantum yield determinations: quinine sulfate dihydrate (Fluorescence Reference Standard grade, AnaSpec, Inc) in 0.5 M H2SO4 was used as a reference, with an excitation wavelength of 370 nm; a value of 0.546 was used for the reference quantum yield (Eaton, D. F., Pure and Applied Chemistry, 1988 60(7), 1107-1114). Calculations were made according to the methods described by Crosby and Demas (Chemical Reviews, 1971, 75(8), 991-1024).

[3] = Peak excitation/emission wavelengths and extinction coefficient in PBS; assay type: physicochemical; details: for ε: at peak excitation wavelength in PBS, pH 7.4, in M-1cm-1 (unit assumed); for Peak Em Wavelength: emission; for Peak Ex Wavelength: excitation
Method: as §1
(§2) Microscope: Multichannel images were collected on an Olympus Fluoview FV1000 confocal laser microscope. Coumarin probes were excited with a 405 nm laser, with alternate excitation sources used as relevant for reference channels, paired with appropriate emission filter sets. Cell culture: A-431 cells (ATCC CRL-1555) and COS-1 cells (ATCC CRL-1650) were cultivated in Dulbecco's Modified Eagle's Medium (DMEM), supplemented with 10% fetal bovine serum and grown in standard culture conditions in 10 cm dishes. OVCA-429 cells were cultivated in RPMI-1640 supplemented with 10% fetal bovine serum under standard culture conditions. For imaging experiments cells were plated on Millicell EZ slides (EMD Millipore, Inc, Billerica, Mass.). Antibody reagents: Monoclonal antibody-TCO conjugates were prepared by incubation of commercially available monoclonal antibodies TCO-PEG4-NHS (Click Chemistry Tools, Scottsdale, Ariz.). Anti EGFR (Cetuximab, Imclone). Anti cytochrome c oxidase (COXIV, Cell signaling Technology, #4844, Danvers, Mass.). An aliquot of antibody in the manufacturer-supplied storage solution was buffer exchanged into PBS with 10 mM sodium bicarbonate, pH 8.0, on a 40K ZebaSpin desalting column (0.5 mL, Thermo Fisher Scientific, Rockford, Ill.). To this solution was added 20 equivalents of TCO-PEG4-NHS; the mixture was allowed to react at 25° C. for 30 minutes, with continuous shaking. The reaction mix was loaded onto a 40K ZebaSpin column to remove organic solvent and small molecule fractions; this eluate was loaded onto a second 40K ZebaSpin column to ensure comprehensive removal of any excess TCO. EGFR Imaging: Fixed A431 cells were prepared by treatment with 4% paraformaldehyde solution (10 min, room temperature), followed by 3 washes with PBS. Fixed cells were stored at 4° C. until the time of imaging, when they were incubated for 20 minutes with 20 μg/mL cetuximab-TCO, then rinsed three times with PBS. For optimal image quality, HELIOS 370H probe must be purified on the day of imaging by reversed phase HPLC-MS. The concentration of stock solutions in PBS were calculated by absorbance spectrometry, based on the measured extinction coefficient of 19000 M^−1 cm^−1. Prior to imaging, the purified stock solutions were subjected to turn-on testing, verifying a fluorogenic turn-on ratio of >1000-fold for HELIOS 370H. For imaging experiments, the acetonitrile stocks were diluted into PBS to yield a 100 nM solution. […]

[4] = system: epidermal growth factor receptor (EGFR) on A431 cells; assay: No-wash fluorogenic imaging of EGFR on A431 cells after cetuximab-TCO; assay type: cell-based, human
Description: as §2, with “For optimal image quality, HELIOS 370H probe must be purified on the day of imaging by reversed phase HPLC-MS.” left out, “cm^−1.” for “cm^−1. Prior to imaging, the purified stock solutions were subjected to turn-on testing, verifying a fluorogenic turn-on ratio of >1000-fold for HELIOS 370H. For imaging experiments, the acetonitrile stocks were diluted into PBS to yield a 100 nM solution.”

[5] = system: mitochondria of OVCA-429 cells; assay: Mitochondria imaging of OVCA-429 cells after anti-COX IV-TCO; assay type: cell-based
Description: as §2, with “For optimal image quality, HELIOS 370H probe must be purified on the day of imaging by reversed phase HPLC-MS.” left out, “cm^−1.” for “cm^−1. Prior to imaging, the purified stock solutions were subjected to turn-on testing, verifying a fluorogenic turn-on ratio of >1000-fold for HELIOS 370H. For imaging experiments, the acetonitrile stocks were diluted into PBS to yield a 100 nM solution.”

[6] = Solvent polarity effects on fluorescence emission of the native probe; assay type: physicochemical; details: PBS pH 7.4, acetonitrile, toluene
Method: FIG. 5 provides the absorption and fluorescence emission spectra of 4b in toluene (dielectric constant 2.4) and acetonitrile (dielectric constant 37.5). Samples were prepared by matched dilutions from a concentrated stock solution of 4b. For the fluorescence spectra, the excitation wavelength was offset from peak absorbance in that solvent by 10 nm; in toluene, the excitation wavelength was 496 nm; in acetonitrile,
Fluorescence emission spectra of HELIOS 400Me in PBS (pH 7.4), acetonitrile (dielectric constant 37.5), and toluene (dielectric constant 2.4) was measured (see FIG. 10). Emission spectra are the mean of 2 or 3 scans and the dashed lines represent +/−SEM. Instrument settings were adjusted to optimize sensitivity given the minimal fluorescence of the native HELIOS probe, and samples were prepared by matched dilution of a concentrated stock solution of HELIOS 400Me into the respective solvents. […] J. Meskers, E. H. A. Beckers, S. Chopin, R. A. J. Janssen, J. Phys. Chem. A 2006, 110, 12363].

[7] = Solubility in aqueous media; assay type: physicochemical; details: PBS, micromolar concentrations

Cc1nnc(-c2cccc(-c3c(C)c4ccc(N)cc4oc3=O)c2)nn1 [HELIOS 347Me]
peak turn-on ratio upon reaction with TCOc [1]: 2,500 fold | Fluorescence Enhancement [1]: 2,500-fold | Φ w/TCOc [2]: 0.29 | ε [3]: 18,500 | Peak Em Wavelength [3]: 455 nm | Peak Ex Wavelength [3]: 347 nm

Cc1c(-c2cccc(-c3nncnn3)c2)c(=O)oc2c(F)c(O)c(F)cc12 [HELIOS 370H]
fluorogenic turn-on ratio of purified stock prior to imaging ([1]; turn-on testing of freshly purified stock solutions): > 1000 fold | staining pattern ([4]; 100 nM in PBS, no wash): bright, membrane specific staining | time until specific staining evident ([4]; 100 nM probe in PBS, fixed A431 cells, cetuximab-TCO): ≤ 10 s | nonspecific binding ([4]; after extended incubation): no nonspecific binding | measured extinction coefficient ([3]; stock solutions in PBS): 19000 M⁻¹ cm⁻¹

Cc1nnc(-c2cccc(-c3c(C)c4cc(F)c(O)c(F)c4oc3=O)c2)nn1 [HELIOS 370Me]
peak turn-on ratio upon reaction with TCOc [1]: 2,900 fold | Fluorescence Enhancement [1]: 2,900-fold | Φ w/TCOc [2]: 0.49 | ε [3]: 19,000 | Peak Em Wavelength [3]: 463 nm | Peak Ex Wavelength [3]: 370 nm

Cc1c(-c2cccc(-c3nncnn3)c2)c(=O)oc2cc3c(cc12)CCCN3 [HELIOS 388H]
time until mitochondrial labeling evident ([5]; 100 nM, fixed and permeabilized OVCA-429 cells): ≤ 2 min | colocalization with mitochondria-specific RFP ([5]; OVCA-429 cells expressing RFP): good colocalization | target to background ratio over time ([5]; serial images up to an hour from dye addition): stable target to background ratios

Cc1nnc(-c2cccc(-c3c(C)c4cc5c(cc4oc3=O)NCCC5)c2)nn1 [HELIOS 388Me]
peak turn-on ratio upon reaction with TCOc [1]: 11,000 fold | Fluorescence Enhancement [1]: 11,000-fold | Φ w/TCOc [2]: 0.38 | ε [3]: 20,000 | Peak Em Wavelength [3]: 482 nm | Peak Ex Wavelength [3]: 388 nm

Cc1nnc(-c2cccc(-c3c(C)c4cc5c6c(c4oc3=O)CCCN6CCC5)c2)nn1 [HELIOS 400Me]
dependence of fluorescence emission intensity on solvent polarity [6]: largely independent of solvent polarity | peak turn-on ratio upon reaction with TCOc [1]: 4,000 fold | Solubility in phosphate buffered saline [7]: soluble

Cc1nnc(-c2ccc(-c3c(C)c4cc5c6c(c4oc3=O)CCCN6CCC5)cc2)nn1 [HELIOS 400pMe]
peak turn-on ratio upon reaction with TCOc [1]: 1,000 fold | Solubility in phosphate buffered saline [7]: soluble

Cc1c(CC(=O)NCc2ccc(-c3nncnn3)cc2)c(=O)oc2c(F)c(O)c(F)cc12 [Marina Blue-Tz, reference compound]
peak turn-on ratio upon reaction with TCOc [1]: 60 fold | Fluorescence Enhancement [1]: 60-fold | Peak Em Wavelength [3]: 459 nm | Peak Ex Wavelength [3]: 362 nm
